Measurements from PMC12040169 (PLOS Biology, 2025).

Experiment: in vitro
Settings: human, hela cells

In order of rising viability at 28.5 h, 10 µM:
1. NC(=O)COC(=O)COc1ccc(Cl)cc1Cl [CBK058628]  85.8%
2. CC1CN(C(=O)COc2ccccc2OC(=O)N(C)C)CC(C)O1 (centres unmarked) [CBK057627]  121%

Same assay, conditions: human, hela cells, % viability

In order of rising viability at 28.5 h, 10 µM:
1. O=C(O)CCNc1ccc(Cl)cc1 [CBK057631]  75.5%
2. O=S(=O)(Cc1ccc(Cl)cc1Cl)N1CCOCC1 [CBK058967]  78.1%
3. Cn1nnnc1SCC(=O)Nc1cc(F)ccc1F [CBK057872]  79.9%
4. Cc1noc(C)c1C(=O)N1CCOCC1 [CBK057765]  80.5%
5. O=S(=O)(NC1CCCCC1)c1ccc(Cl)cc1I [CBK057574]  80.8%
6. O=C(NC1=NCCS1)c1cc2ccccc2o1 [CBK058927]  80.8%
7. CCCc1ccc(C(C)NC(=O)C2CC2C)cc1 (centres unmarked) [CBK057847]  82.4%
8. CCOc1ccccc1NC(C)CC(=O)O (centres unmarked) [CBK058826]  82.8%
9. O=C(c1ccc(COc2ccc(I)cc2)cc1)N1CCCCCC1 [CBK058852]  83.4%
10. O=C(Nc1nc2ccccc2s1)c1cnccn1 [CBK058664]  83.9%
11. O=C(Cc1cccc(F)c1)N1CCOCC1 [CBK058928]  83.9%
12. O=C(CSC1=NCCS1)Nc1ccc(Cl)cn1 [CBK057917]  84%
13. CN(C)S(=O)(=O)c1cccnc1OCC(O)CNC(C)(C)C (centres unmarked) [CBK058059]  84.5%
14. CN(C)CCNC1CS(=O)(=O)CC1O (centres unmarked) [CBK059025]  84.8%
15. CCc1nnc(NC(=O)CCc2ccccc2)s1 [CBK057943]  86.1%
16. COc1ccc(OCCC(=O)O)cc1 [CBK057706]  86.2%
17. O=C(Nc1ccccc1)c1cccc(S(=O)(=O)NCc2cccs2)c1 [CBK058153]  87.1%
18. Cc1cc(-c2ccccc2)nc(SCC(=O)Nc2nnc(C)s2)n1 [CBK058194]  87.3%
19. Nc1nc(SCC(=O)NCCCO)nc2sc3c(c12)CCCC3 [CBK057958]  87.8%
20. Cc1ccc(N(CC(=O)NCC2CCCO2)S(C)(=O)=O)cc1 (centres unmarked) [CBK058709]  88.1%
21. COc1cc(C(=O)NCc2ccccn2)cc(OC)c1OC [CBK058552]  88.3%
22. Cc1cc(NC(=O)c2cc(C)oc2C)no1 [CBK058081]  88.7%
23. O=S(=O)(c1c(Cl)cc(C(F)(F)F)cc1Cl)N1CCOCC1 [CBK057736]  88.8%
24. O=C(Nc1ccc(F)c(Cl)c1)c1cccnc1Sc1cccs1 [CBK057512]  89%
25. CSc1ccc(CNC(=O)c2ccc(Cl)cc2)s1 [CBK057705]  89.4%
26. O=S(=O)(c1ccc(F)cc1F)n1ccc2c(N3CCNCC3)nccc21 [CBK059061C]  89.7%
27. Cc1cc(F)c(S(=O)(=O)NCCN2CCOCC2)cc1NC(=O)c1ccc(Br)o1 [CBK059091C]  89.7%
28. Cc1ccc2[nH]c(SCC(=O)NC3CCCC3)nc2c1 [CBK057983]  90%
29. O=S(=O)(c1ccc(F)c(Cl)c1)n1ccc2c(N3CCNCC3)nccc21 [CBK059059C]  90.7%
30. c1ccc(CNc2nc(-c3ccncc3)cs2)cc1 [CBK058609]  91%
31. Cc1nc(COc2ccccc2Cl)sc1-c1ccnc(N)n1 [CBK057769]  91.3%
32. CCOC(=O)c1sc(NC(=O)C2CCCO2)c(C(N)=O)c1C (centres unmarked) [CBK058830]  91.3%
33. Ic1ccc(NCc2cn3ccccc3n2)cc1 [CBK058563]  91.4%
34. O=S(=O)(c1c(Cl)cccc1Cl)n1ccc2c(N3CCNCC3)nccc21 [CBK059060C]  91.4%
35. CC(=O)c1sc(NC(=O)c2ccc(Br)o2)nc1C [CBK057948]  91.6%
36. COCC(C)NC(=O)c1cc2c(C)cc(C)cc2[nH]1 (centres unmarked) [CBK057591]  91.8%
37. O=C(CSc1ccccn1)Nc1cccc(Cl)c1Cl [CBK057679]  91.8%
38. CCCC(CCC)C(=O)Nc1ccc(NC(=O)c2ccco2)c(C)c1 [CBK058263]  91.9%
39. COC(=O)c1c(C)n[nH]c1COc1ccccc1 [CBK057823]  92.1%
40. O=C(O)CCC(=O)Nc1ccccc1C(=O)Nc1ccccc1 [CBK058571]  92.4%
41. O=S(=O)(Nc1ccccc1)c1ccccc1I [CBK057566]  92.5%
42. CCCc1cc(C(=O)OC)c(NC(=O)c2c(C)noc2C)s1 [CBK058088]  92.5%
43. COc1ccccc1N1CCN(C(=O)c2snnc2C)CC1 [CBK057792]  92.8%
44. CCc1nnc(NC(=O)c2cc(OC)c(OC)c(OC)c2)s1 [CBK058342]  93.1%
45. O=C(NCC1CCCO1)c1sc2ccccc2c1Cl (centres unmarked) [CBK058604]  93.3%
46. O=C(CSc1ncnc2c1oc1ccccc12)Nc1ccccc1 [CBK057994]  93.4%
47. O=C(COc1ccccc1)Nc1nccs1 [CBK058018]  93.4%
48. CC(CN1CCCCC1)OC(=O)COc1ccc(F)cc1 (centres unmarked) [CBK058066C]  93.6%
49. CCC(=O)NC(=S)Nc1cccc(NC(=O)c2cccc(Cl)c2)c1 [CBK058759]  93.6%
50. Cn1nc(NC(=O)c2ccco2)c2c(F)cccc21 [CBK057774]  93.7%
51. CCCNC(=O)COc1ccc(CC)cc1 [CBK058199]  93.9%
52. CN(C)CCN(C)S(=O)(=O)c1ccc(C(C)(C)C)cc1 [CBK059035T]  94.7%
53. Cc1nc(COc2ccccc2)nc(O)c1Cl [CBK057810]  95.2%
54. CN(C)CCCOc1ccc2c(c1)Sc1ccccc1CC2=O [CBK058002]  95.4%
55. O=C1CC(C(=O)Nc2c(Cl)cccc2Cl)C2(CCCCC2)O1 (centres unmarked) [CBK058445]  95.9%
56. O=C(NCc1ccccn1)Nc1cccc(Cl)c1 [CBK058569]  95.9%
57. CN1CCN(S(=O)(=O)c2ccc(-c3cc(C(F)(F)F)on3)s2)CC1 [CBK057780]  96%
58. CC(CNCC1CCCO1)COc1cccc(Cl)c1 (centres unmarked) [CBK058789]  96%
59. CC1=C(C(=O)Nc2ccc(Cl)cc2Cl)SCCO1 [CBK057784]  96.5%
60. Cc1ccc([N+](=O)[O-])cc1S(=O)(=O)n1ccc2c(N3CCNCC3)nccc21 [CBK059068C]  96.5%
61. O=C(CSc1ccccc1)NCc1ccncc1 [CBK058023]  96.7%
62. COc1ccc(NC(=O)c2sc(Cl)nc2C)cc1 [CBK057902]  97.1%
63. CC1Cc2ccccc2N1C(=O)c1nn(C)cc1I (centres unmarked) [CBK058268]  97.3%
64. Cc1cc(Cl)ccc1OCCCC(=O)N1CCc2ccccc21 [CBK059016]  97.8%
65. CCCc1cc(C(=O)OC)c(NC(=O)C2C3CCC(C3)C2C(=O)O)s1 (centres unmarked) [CBK057885]  98.5%
66. CN1CCC(N(C)S(=O)(=O)c2ccc(C(C)(C)C)cc2)C1 (centres unmarked) [CBK059036T]  98.5%
67. Nc1nonc1C(=O)NCCNC(=O)c1ccco1 [CBK058480]  99.1%
68. O=C(O)C1C2C=CC(O2)C1C(=O)NCc1ccccn1 (centres unmarked) [CBK058859]  99.1%
69. COC(=O)CNC(=O)c1ccncc1Br [CBK057760]  101%
70. COc1ccc(OC)c(S(=O)(=O)n2ccc3c(N4CCNCC4)nccc32)c1 [CBK059067C]  101%
71. O=C(Nc1ccc(Cl)cc1Cl)C1CC2CCC1C2 (centres unmarked) [CBK058237]  102%
72. Cn1nnnc1NC(=O)c1ccccc1F [CBK058776]  102%
73. CCC(C)(C)c1nnc(NC(=O)COc2ccc(Cl)cc2Cl)s1 [CBK058435]  103%
74. CCOC(=O)COc1ccc(C#N)cc1OCC [CBK058937]  103%
75. O=C(Nc1cccc(Cl)c1Cl)c1cccs1 [CBK057672]  104%
76. Cc1cc(Cl)ccc1NC(=O)COCC(=O)O [CBK057723]  104%
77. COc1ccc(NC(=O)CSc2nnc(N)s2)cc1 [CBK058635]  104%
78. O=[N+]([O-])c1ccccc1S(=O)(=O)NCCSCc1ccc(Cl)c(Cl)c1 [CBK058810]  104%
79. Cc1cc(C)nc(NC(=O)C2C3C=CC(C3)C2C(=O)O)c1 (centres unmarked) [CBK058843]  104%
80. O=C(Nc1ncc(Cc2ccc(F)cc2)s1)C1CCCCC1 [CBK058611]  105%
81. COC(=O)Nc1ccc(S(=O)(=O)N2CCCCC2C(=O)O)cc1 (centres unmarked) [CBK058086]  106%
82. CCC(Sc1nccn1C)C(=O)Nc1ccc(S(N)(=O)=O)cc1 (centres unmarked) [CBK058413]  107%
83. Cn1nnnc1SCC(=O)Nc1ccc(Cl)c(Cl)c1 [CBK058218]  108%
84. O=C(Nc1ccccc1)c1onc2c1CCCC2 [CBK058703]  108%
85. Cc1cc(C)cc(NC(=O)C2C3C4CCC(C4)C23)c1 (centres unmarked) [CBK058768]  108%
86. CCC(NC(=O)c1csc2c1CCCC2)c1ccccc1 (centres unmarked) [CBK059006]  108%
87. Cn1c(CNC2CCCCC2)nc2ccccc21 [CBK058416]  111%
88. CC1=NN(C(=O)c2ccc(Cl)cc2)C(C)(C)C1 [CBK058904]  111%
89. Cc1nn(C)cc1C(=O)NC1CCCC1 [CBK057851]  112%
90. O=C(Nc1ccc2c(c1)CS(=O)(=O)C2)c1cccs1 [CBK057563]  113%
91. O=C(Nc1nnc(C2CCCCC2)s1)c1ccccc1I [CBK057918]  114%
92. O=C(NC1CCCCCC1)c1ccc(COCC(F)(F)C(F)F)cc1 [CBK059012]  114%
93. O=C(NCCOc1ccc(F)cc1)c1cccs1 [CBK057930]  116%
94. CN(C(=O)CSc1nnn(C)n1)c1ccccc1 [CBK058129]  117%
95. CC1=NN(C(=O)c2c(Cl)c(C)nn2C)C(O)(C(F)(F)F)C1 (centres unmarked) [CBK058892]  117%
96. O=C(NCCSCc1ccco1)C1CCC1 [CBK057516]  119%
97. Cc1ccc(CNC(=O)CCC(=O)O)cc1 [CBK058951]  120%
98. COC(=O)C(CC(C)C)Nc1nc(OC)cc(OC)n1 (centres unmarked) [CBK058765]  121%
99. CCC(C)c1ccc(NC(=O)CSc2nnnn2C)cc1 (centres unmarked) [CBK058085]  122%
